Measurements as given in paper PMC6694155, “PTPσ inhibitors promote hematopoietic stem cell regeneration” (Nature Communications, 2019).
“And” between values parts separate entries of the source, which are not always exact repeats. Identical values can stand only once.

Legend:
BM KSL cells [1] = test: Annexin V/7AAD apoptosis assay of BM KSL cells from mice 24 h post 500 cGy TBI; format: in vivo, mouse
Method: Eight- to ten-week-old female C57BL/6 mice were irradiated with 500 cGy TBI followed by subcutaneous injections of 5 mg/kg DJ001 or vehicle, or 5 mg/kg DJ001 plus 40 mg/kg EHT1864. Twenty four hours after irradiation, mice were killed to collect BM cells for Annexin V apoptosis analysis. BM cells were stained with APC-Cy7-conjugated anti-mouse Sca1 (BD Biosciences, #560654, 1:100), PE-conjugated anti-ckit (BD Biosciences, #553355, 1:100), and V450 lineage cocktail (BD Biosciences, #561301, 1:10) antibodies for 30 min at 4 °C. Cells were then resuspended in 1× Annexin V binding buffer and then stained with FITC-conjugated anti-Annexin V antibody (BD Biosciences, #556547,1:50) and 7AAD antibody (BD Biosciences, #559925, 1:40)[68]. For in vitro human BM cell apoptosis assays, isolated human BM CD34^+ cells were plated into 96-well plates and then irradiated with 300 cGy. Immediately after irradiation, cells were treated with 5 μg/mL DJ001 or vehicle for 24 h and then collected for Annexin V cell apoptosis analysis. For cell cycle analysis, BM KSL cells were irradiated at 300 cGy and then treated with 1 μg/mL DJ001 or vehicle for 36 h. Subsequently, cells were resuspended in 200 μL of PBS, fixed with 1 mL of ice-cold fixation solution (0.25% Saponin, 2.5% PFA, 2% fetal calf serum (FCS) in PBS), and incubated for 30 min on ice. Cells were washed in Saponin buffer (0.25% Saponin, 2% FCS in PBS) and resuspended in 200 μL of Saponin buffer containing 20 μL of FITC-conjugated anti-Ki67 antibody (BD Biosciences, #556026, 1:10) and 1 μL of RNase (Qiagen, #19101, 100 mg/mL). After 30 min of incubation, cells were washed in Saponin buffer and resuspended for flow analysis in 200 μL of Saponin buffer containing 5 μL 7AAD (BD Biosciences, #559925, 1:40).

panel of 21 Phosphatases = test: PhosphataseProfiler screen, whole panel; format: biochemical; settings: DJ001 at 10 μM and 1 μM
Method: (§1) Compound DJ001 was evaluated in a PhosphataseProfiler™ screen at 10 μM and 1 μM (2.7 μg/mL and 0.27 μg/mL) concentrations at Eurofins Pharma Discovery Services UK (Study number UK022-0004033) against a panel of 21 Phosphatases. In each experiment, the respective reference antagonist/agonist was tested directly with DJ001 and the data were compared with historical values determined at Eurofins. DJ001 compound inhibition was calculated as percentage inhibition of the enzymatic activity compared with control.

BM KSL cells [2] = test: Transendothelial migration assay; format: cell-based, mouse
Method: For the transendothelial migration assay,VeraVec^TM mouse spleen ECs (Angiocrine Biosciences) were cultured to confluence in […] pore transwells (Corning Incorporated). Transwells were then seeded with 50,000 sorted BM KSL cells in IMDM with 10% FBS, 1% pen-strep, 20 ng/mL TPO, 125 ng/mL SCF, and 50 ng/mL Flt3 ligand with or without 1 µg/mL of DJ001. SDF-1, 500 ng/mL (R&D Systems), was added to the bottom chamber of the transwell. At 18 h post incubation, cells in the bottom chamber were collected and cell counts were performed.

BM KSL cells [3] = test: CFC assay, 3 day culture of non-irradiated BM KSL cells; format: cell-based, mouse; settings: for Supplementary Figure 3b: BFU-E / Supplementary Figure 3b: CFU-GEMM / Supplementary Figure 3b: CFU-GM: non-irradiated BM KSL cells, replicates
Method: CFC assays (colony-forming unit-granulocyte monocyte), burst-forming unit-erythroid, and CFU-GEMM were performed using MethoCult GF M3434 (Stemcell Technologies)[6]. For all in vitro assays, BM CD34^−KSL cells, KSL cells, and Lin^− cells were cultured in TSF media (IMDM, 10% FBS, 1% pen-strep, 20 ng/mL recombinant mouse TPO, 125 ng/mL recombinant mouse SCF, 50 ng/mL recombinant mouse Flt3 ligand). Recombinant mouse SCF, Flt3 ligand, and TPO were purchased from R&D Systems. For competitive repopulation assays, BM cells were isolated from donor 10–12-week-old female CD45.2^+ mice. Recipient 10-week-old female CD45.1^+ B6.SJL mice were irradiated with 950 cGy TBI using a Cs137 irradiator and donor BM cells were administered via tail vein injection along with a competing dose of 1 × 10^5 non-irradiated host BM cells. Multilineage donor hematopoietic cell engraftment was measured in the PB by flow cytometry.

[4] = target: T1, LMPTP-B (Low Molecular Weight Protein Tyrosine phosphatase B) (Homo sapiens, UniProt P24666); test: PhosphataseProfiler screen: LMPTP-B; format: biochemical; settings: replicates
T1 construct: purchased Eurofins Pharma Discovery Services UK
Method: as §1

BM KSL cells [5] = test: Gene expression of pro- and anti-apoptotic genes in irradiated BM KSL cells (qPCR); format: cell-based, mouse; design: key to Figure 3g: gene expression, Bax / Figure 3g: gene expression, Bcl-2 / Figure 3g: gene expression, Bcl-xL / Figure 3g: gene expression, Bim / Figure 3g: gene expression, Mcl1: fold change, 2^-ΔΔCt vs media-treated non-irradiated KSL, Gapdh-normalized
Description: For all studies, RNA was isolated using the Qiagen RNeasy micro kit (Qiagen). RNA was reverse transcribed using the High-Capacity cDNA Reverse Transcription Kit (ThermoFisher Scientific) and was then used for quantitative PCR with SYBR Select Master Mix (Life Technologies). Values were normalized to housekeeping gene Gapdh/GAPDH and given as ΔΔCt values normalized to media-treated, non-irradiated BM KSL cells (2(−ΔΔC(T)) method)[67].

[6] = BM KSL cells, 12 h post 300 cGy
[7] = irradiated BM KSL cells, qPCR, replicates

T1 sequence (P24666 1-158 isoform P24666-2, species assumed): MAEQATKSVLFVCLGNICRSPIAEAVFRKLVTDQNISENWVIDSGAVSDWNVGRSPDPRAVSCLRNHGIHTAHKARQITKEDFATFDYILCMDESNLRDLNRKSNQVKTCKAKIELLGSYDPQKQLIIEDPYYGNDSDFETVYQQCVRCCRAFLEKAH

With O=C(/C=C\Nc1cccc([N+](=O)[O-])c1)c1ccccc1 [DJ001, (Z)-3-((3-nitrophenyl)amino)-1-phenylprop-2-en-1-one] the “percentage of apoptotic BM KSL cells vs vehicle” value (BM KSL cells [1]; 24 h following 500 cGy TBI) was “significantly decreased the percentage of apoptotic BM KSL cells”, the “Figure 3e: Annexin V/7AAD apoptosis of BM KSL cells” value (BM KSL cells [1]; 24 h post 500 cGy TBI, individual mice) was 14.6 and 11.3 and 12.5 and 12.9 and 14.7 and 10.4 and 14.5 and 15.5 and 16.7 and the “inhibitory activity against 20 other phosphatases” value (panel of 21 Phosphatases) was “no inhibitory activity”. For the same compound, the “in vitro migration of BM KSL cells through EC monolayers” value (BM KSL cells [2]; 1 µg/mL DJ001, 18 h) was “did not alter the in vitro migration”, the “number of cells within the lower chambers, per replicate (Supplementary Figure 8a)” value (BM KSL cells [2]; 1 µg/ml DJ001, 18 hours) was 17.5 and 8.74 and 19.1 and 21.8 and 10.9 and the “Supplementary Figure 3b: BFU-E” value (BM KSL cells [3]; 10 ng/mL) was 0 (4×) and 1 and 2. For the same compound, the “Supplementary Figure 3b: CFU-GEMM” value (BM KSL cells [3]; 10 ng/mL) was 2 and 4 (2×) and 7 (2×) and 3, the “Supplementary Figure 3b: CFU-GM” value (BM KSL cells [3]; 10 ng/mL) was 21 and 22 and 19 and 15 (2×) and 18 and the “Supplementary Figure 3b: BFU-E” value (BM KSL cells [3]; 100 ng/mL) was 1 (3×) and 3 and 2. For the same compound, the “Supplementary Figure 3b: CFU-GEMM” value (BM KSL cells [3]; 100 ng/mL) was 8 (2×) and 7 and 6 and 5, the “Supplementary Figure 3b: CFU-GM” value (BM KSL cells [3]; 100 ng/mL) was 23 and 20 and 24 (2×) and 21 and the “Supplementary Figure 3b: BFU-E” value (BM KSL cells [3]; 1000 ng/mL) was 3 and 2 (3×) and 1. The “Supplementary Figure 3b: CFU-GEMM” value (BM KSL cells [3]; 1000 ng/mL) was 6 (3×) and 8 and 9, the “Supplementary Figure 3b: CFU-GM” value (BM KSL cells [3]; 1000 ng/mL) was 27 and 30 and 28 (2×) and 25 and the “Supplementary Figure 3b: BFU-E” value (BM KSL cells [3]; 5 µg/mL) was 2 and 4 and 1 (3×) and 0. The “Supplementary Figure 3b: BFU-E” value (BM KSL cells [3]; 10 µg/mL) was 3 (2×) and 2 (2×) and 1 (2×), the “Supplementary Figure 3b: CFU-GEMM” value (BM KSL cells [3]; 10 µg/mL) was 3 (3×) and 2 (2×) and 1 and the “Supplementary Figure 3b: CFU-GM” value (BM KSL cells [3]; 10 µg/mL) was 14 (2×) and 17 and 16 and 15 and 12. For the same compound, the “number of BM CFCs in 3 day culture of BM KSL cells” value (BM KSL cells [3]; 10 – 100 ng/ml DJ001) was “significantly increased the number of BM CFCs”, the “numbers of CFCs vs control” value (BM KSL cells [3]; 3 day culture of non-irradiated BM KSL cells) was “significantly increased the numbers of colony forming cells (CFCs)” and the “Supplementary Figure 3b: CFU-GEMM” value (BM KSL cells [3]) was 3 (4×) and 6 and 4. The “Supplementary Figure 3b: CFU-GM” value (BM KSL cells [3]) was 22 and 21 and 23 and 20 and 19 and 18, the “Supplementary Figure 1: LMPTP-B activity” value ([4]; 0.27 g/mL DJ001) was 96 and 90 and 99 and the “Supplementary Figure 1: LMPTP-B activity” value ([4]; 2.7 g/mL DJ001) was 99 and 100 and 91. The “expression of Bim, Bax, Puma, Bcl2” value (BM KSL cells [5]; [6]) was “no effect”, the “expression of Mcl-1 and Bcl2l1” value (BM KSL cells [5]; [6]) was “increased the expression” and the “Figure 3g: gene expression, Bax” value (BM KSL cells [5]; [7]) was 2.95 and 3.78 and 1.75. For the same compound, the “Figure 3g: gene expression, Bcl-2” value (BM KSL cells [5]; [7]) was 1.73 and 1.94 and 1.28 and 1.59 and 1.76 and 1.06, the “Figure 3g: gene expression, Bcl-xL” value (BM KSL cells [5]; [7]) was 4.94 and 3.23 and 6.87 and 4.82 and 3.79 and 5.97 and the “Figure 3g: gene expression, Bim” value (BM KSL cells [5]; [7]) was 2.95 and 3.78 and 2.75. For the same compound, the “Figure 3g: gene expression, Mcl1” value (BM KSL cells [5]; [7]) was 1.95 and 1.78 and 2.55 and 0.81 and 1.62 and 1.96 and the “Figure 3g: gene expression, Puma” value (BM KSL cells [5]; [7]) was 2.95 and 1.78 and 1.75.
